Assay results published in patent US20090105282A1, “METHODS OF TREATING BENIGN PROSTATIC HYPERPLASIA OR LOWER URINARY TRACT SYMPTOMS BY USING PDE 5 INHIBITORS” (Schering-Plough Corporation, priority 2005, published 2009).

Target: PDE 5 (Homo sapiens, UniProt O76074)
Experiment: PDE 5 enzyme inhibition (PDE 5 IC50)
Assay type: biochemical

Question: For CCn1c(=O)c2c(nc(NC3CCCCC3)n2Cc2ccc3c(c2)OCO3)n(CC)c1=O [Compound 168], which IC50 is on record?
Answer: ≤ 5 nM

Question: For COc1ccc(Cn2c(NC3CC4CCC3C4)nc3c2c(=O)n(C)c(=O)n3C)cc1 (stereo not drawn) [Compound 77], which IC50 is on record?
Answer: 15 to 100 nM

Question: With CCn1c(=O)c2c(nc(NC3CCCCC3)n2Cc2ccc(OC)c(Br)c2)n(CCO)c1=O [Compound 117] as the compound, how does the IC50 read?
Answer: ≤ 5 nM

Question: With CCn1c(=O)c2c(nc(NC3CCCCC3)n2Cc2ccc(S(N)(=O)=O)cc2)n(CC)c1=O [Compound 119] as the compound, how does the IC50 read?
Answer: ≤ 5 nM

Question: Which IC50 does the source give for CCn1c(=O)c2c(nc(NC3CCCCC3)n2Cc2ccc(O)cc2)n(CCO)c1=O [Compound 104] here?
Answer: ≤ 5 nM

Question: How did the IC50 turn out when CCn1c(=O)c2c(nc(NC3CCOCC3)n2Cc2ccc(OC)c(Br)c2)n(CCO)c1=O [Compound 186] was run?
Answer: ≤ 5 nM

Question: With CCn1c(=O)c2c(nc(NC3CCOCC3)n2Cc2ccc(S(N)(=O)=O)cc2)n(CC)c1=O [Compound 188] as the compound, how does the IC50 read?
Answer: ≤ 5 nM

Question: How did the IC50 turn out when Cc1cc(Cn2c(NC3CCCCC3)nc3c2c(=O)n(C)c(=O)n3C)ccc1O [Compound 147] was run?
Answer: 15 to 100 nM

Question: For Cn1c(=O)c2c(nc(NC3CCCCC3)n2Cc2ccccc2Cl)n(C)c1=O [Compound 148], which IC50 is on record?
Answer: 15 to 100 nM

Question: For Cn1c(=O)c2c(nc(NC3CCCCC3)n2Cc2ccc(O)cc2)n(C)c1=O [Compound 37], which IC50 is on record?
Answer: 5 to 10 nM

Question: CCn1c(=O)c2c(nc(N[C@@H]3CCC[C@H]3O)n2Cc2ccc(O)c(Br)c2)n(CCO)c1=O [Compound 118] was tested. Which IC50 did it give?
Answer: ≤ 5 nM

Question: Which IC50 does the source give for CCn1c(=O)c2c(nc(NC3CCCCC3)n2Cc2ccc(O)c(Cl)c2)n(CCO)c1=O [Compound 107] here?
Answer: ≤ 5 nM

Question: CCN(CC)CCn1c(=O)n(CC)c(=O)c2c1nc(NC1CCCCC1)n2Cc1ccc(OC)c(Br)c1 [Compound 187] was tested. Which IC50 did it give?
Answer: ≤ 5 nM

Question: For CCn1c(=O)c2c(nc(NC3CCCCC3)n2Cc2ccc(OC)cc2)n(CCO)c1=O [Compound 103], which IC50 is on record?
Answer: ≤ 5 nM

Question: Which IC50 does the source give for CCn1c(=O)c2c(nc(NC3CCCCC3)n2Cc2ccc(O)c(C)c2)n(CC)c1=O [Compound 169] here?
Answer: ≤ 5 nM

Question: CCn1c(=O)c2c(nc(N[C@@H]3CCCC[C@@H]3O)n2Cc2ccc(OC)c(Br)c2)n(CC)c1=O [Compound 124] was tested. Which IC50 did it give?
Answer: ≤ 5 nM

Question: For CCn1c(=O)c2c(nc(NC3CCCCC3)n2Cc2ccc(OC)c(Br)c2)n(CC)c1=O [Compound 122], which IC50 is on record?
Answer: ≤ 5 nM

Question: Which IC50 does the source give for CCn1c(=O)c2c(nc(N[C@@H]3CCC[C@H]3O)n2Cc2ccc(OC)c(Br)c2)n(CC)c1=O [Compound 123] here?
Answer: ≤ 5 nM

Question: CCn1c(=O)c2c(nc(NC3CCCCC3)n2Cc2ccc(OC)c(Cl)c2)n(CCO)c1=O [Compound 105] was tested. Which IC50 did it give?
Answer: ≤ 5 nM

Question: Which IC50 does the source give for CCn1c(=O)c2c(nc(NC3CCCC3)n2Cc2ccc(O)cc2)n(C)c1=O [Compound 79] here?
Answer: 5 to 10 nM

Question: Which IC50 does the source give for CCn1c(=O)c2c(nc(N[C@@H]3CCC[C@H]3O)n2Cc2ccc(OC)c(Cl)c2)n(CCO)c1=O [Compound 106] here?
Answer: ≤ 5 nM

Question: How did the IC50 turn out when Cn1c(=O)c2c(nc(NC3CCCCC3)n2Cc2cccc(O)c2)n(C)c1=O [Compound 146] was run?
Answer: 15 to 100 nM

Question: With CCn1c(=O)c2c(nc(NC3CCCCC3)n2Cc2ccc(O)c(Br)c2)n(CCO)c1=O [Compound 116] as the compound, how does the IC50 read?
Answer: ≤ 5 nM

Question: Which IC50 does the source give for CCn1c(=O)c2c(nc(NC3CCCCC3)n2Cc2cccc(O)c2)n(CC)c1=O [Compound 170] here?
Answer: ≤ 5 nM
